Data from patent US20240024093A1, “INTRAOCULAR DRUG DELIVERY SYSTEMS AND METHODS OF USE” (SpyGlass Pharma, Inc., priority 2022, published 2024).

Experiments:
[1] = daily release or elution of Bimatoprost in vitro versus time (FIG. 8); format: physicochemical; conditions: four-hundred-day study
Source text: FIG. 8 is an exemplary graph of daily release or elution of a pharmaceutical or therapeutic agent in vitro versus time. […] The target release rate in this study on rabbits was 0.050 to 0.100 micrograms per day.

[2] = Bimatoprost sampled in the aqueous humor of dogs over time (FIG. 9); format: in vivo
Source text: FIG. 9 is an exemplary graph of a therapeutic agent delivered to the aqueous humor of an eye of canines versus time.
In this example, there was a low dose group of dogs (Grp 1), a mid-dose group of dogs (Grp 2), a high dose group of dogs (Grp 3), and a placebo group of dogs (Grp 4).

Question: Which results are given for `CCNC(=O)CCC/C=C\C[C@@H]1[C@@H](/C=C/[C@@H](O)CCc2ccccc2)[C@H](O)C[C@@H]1O` [Bimatoprost]?
Answer: average release rate [1]: less than 0.100 micrograms per day; release rate over the study (release kinetics) [1]: essentially a zero-order and/or a steady state elution rate; level of Bimatoprost in the aqueous humor (elution kinetics) ([2]; low dose (Grp 1), mid-dose (Grp 2), high dose (Grp 3) groups, study period of about one hundred thirteen days): zero-order elution rate; mean measurements of Bimatoprost in the aqueous humor (dose dependence) ([2]; low, mid and high dose groups, FIG. 9): increased with the higher doses
